From PMC6856805, “Environmental Risk Assessment for the Active Pharmaceutical Ingredient Mycophenolic Acid in European Surface Waters” (Environmental Toxicology and Chemistry, 2019)
Like-named read-outs stand apart in the source and are kept apart here.

Assays:
[1] = set-up: method as in Franquet‐Griell et al. (2017a); details: ref Franquet‐Griell et al. (2017a); cited from earlier work
Danio rerio = assay: Fish partial life cycle test, OECD 229 short-term reproduction phase (F0); format: in vivo
Description: At the highest tested concentration of 0.1 mg MPA/L nominal concentration (73 µg/L GMMC), only 2 of 75 hatched fish survived until the end of the test, showing that the test concentration range was well chosen. The most sensitive endpoints in this partial life cycle test were survival and growth in terms of length and mass of the young F1 fish; the effects were comparatively small but statistically significant at p = 0.05. In contrast, the F0 generation was impacted to a lesser extent.
In view of the mammalian mutagenicity and reprotoxicity, a fish partial life-cycle test (PLC; an OECD 229 short-term reproduction test followed by an OECD 210 early-life-stage test) was performed by ECT Oekotoxikologie under GLP with a series of concentrations of MPA in a flow-through setting with the zebrafish Danio rerio (Gilberg & Chambers 2018). Briefly, mature fish (F0 generation) in breeding groups of 14 fish were exposed to four concentrations of the test item (0.0005, 0.0029, 0.0171 and 0.100 mg MPA/L), in fish media as well as to controls without the test item, in two replicates per treatment including controls, for 23 days in a 14-hours light to 10-hours dark photoperiod (OECD 229 phase). During this time period, reproduction parameters (survival of parents, fecundity, e.g., number of eggs, fertility and embryo viability/hatchability) of zebrafish exposed to the test item were assessed in comparison with the controls to determine the lowest observed effect concentration (LOEC) and the NOEC. After 23 days, newly fertilised eggs of the F1 generation were collected and exposed to the corresponding series of test item concentrations, 20 eggs in four replicates each per treatment including controls, until 30 days post-hatch (OECD 210 phase). Lethal and sublethal effects of the test item on eggs, larvae and juvenile fish exposed to the test item were assessed in comparison with controls to determine the LOEC and the NOEC. Samples were taken and analysed by LC–MS/MS (Supplemental Information) and the GMMC for the concentrations determined. Statistical check were made using Probit analyses, Weibull analyses, 2- and 3-parameter normal CDF, Shapiro-Wilk’s test on normal distribution, Levene’s test on variance homogeneity, Fisher's Exact Binomial test, Chi² 2×2 Table Test, Welsh t-test, Step-down Cochran-Armitage test Procedure, Williams Multiple Sequential t-test Procedure and Dunnett`s Multiple t-test Procedure.

bacteria = assay: Derivation of provisional PNEC for antibiotic resistance (PNECABR)
Description: Antibiotic resistance risk is assessed through comparing PECs or MECs with a PNEC for formation or maintenance of antibiotic resistance (PNECABR). There is no universally accepted or regulatory algorithm for deriving a reliable PNECABR for bacteria, so for the time being this is approximated by applying assessment factors to bacterial minimal inhibitory concentrations (MICs). […] To be fully consistent with Bengtsson‐Palme and Larsson's (2016) approach to PNECABR derivation, the authors were contacted for help; they (J. Bengtsson‐Palme, Department of Infectious Diseases, Institute of Biomedicine, The Sahlgrenska Academy, University of Gothenberg, Gothenberg, Sweden, personal communication) state that “we only use species with 10 or more MIC observations, to avoid drawing conclusions from insufficient data […] . The only species with >10 observations in the Noto et al. (1969) paper is S[taphylococcus] aureus. In addition, when the MIC1% are selected, only one MIC [J.O.Straub's italics] value is selected per species (the lowest). Finally, the uncertainty factor for low sampling numbers is calculated as: (observed lowest MIC) × (number of tested species) ÷ 41.” Both these provisional PNECABR values were derived from the MPA MICs; the lower was selected and compared with the PECs and MECs.
Noto et al. (1969) tested the activity of MPA against various microorganisms, both fungi and some strains of bacteria. […] Higher inhibition of MPA was shown against pathogenic fungi of the genera Candida, Willia, Cryptococcus, Microsporum, Aspergillus, and Trichophyton, with MICs ranging from 3.9 to 500 mg/L (Noto et al. 1969).

[2] = set-up: method as in Franquet‐Griell et al. (2017a); details: ref Franquet‐Griell et al. (2017a), cited from earlier work
[3] = Photodegradation in buffered aqueous solutions under natural sunlight; format: physicochemical
Description: In contrast, Franquet‐Griell et al. (2017a) reported MPA k photo values of 0.0284 min^–1 for UV‐C irradiation and 0.004 min^–1 in a Solar Box artificial sunlight reactor. […] Giebułtowicz and Nałęcz‐Jawecki (2016) presented a UV‐visual light spectrum of MPA in their Supporting Information with a λmax at 215 nm and 2 sequentially lower peaks at 248 and 297 nm, confirming UV‐C photosensitivity.
The photodegradation of MPA in buffered aqueous solutions at pH 5, 7 and 9 under natural sunlight was determined by Syntex, 'closely following the US FDA guideline' (Nicholson 1994)). MPA was used in solutions of 3.12×10^–5 M (= 10 mg/L); the pH 5 solution was buffered with 0.1 M sodium acetate, the pH 7 solution with 0.1 M monobasic sodium phosphate and the pH 9 solution with 0.1 M sodium borate buffer. As actinometers (reference photodegradants) p-nitroanisole at 1.00×10^–5 M was used, with 4.96×10^–3 M pyridine for pH 5, with 6.20×10^–3 M pyridine for pH 7 and with 9.93×10^–3 M pyridine for pH 9. In each of the seasonal studies, hermetically closed quartz tubes with either one of the MPA solutions or the corresponding actinometer solutions were exposed to natural sunlight in triplicate. Single control tubes containing either MPA solution or actinometer solution, both at different pHs, were wrapped in aluminium foil and covered in black plastic and exposed in parallel. The tubes were set up in Palo Alto, Ca, USA at 37° 25' N, in parallel on a board painted black, which was exposed on a stand pointing due […] at an angle of 30°. Data for the four seasonal experiments, with date, time of initiation and end, sampling intervals, weather, cloud cover and temperature, are given in the report. At each of several equivalent timepoints, one set of tubes was removed from sunlight, analysed by HPLC and compared with the respective dark control. The substance loss of p-nitroanisole, with known quantum yield, in the […] served to calibrate the loss of MPA in the test tubes and determine the photolytic rate constants kphoto and half-lives for MPA at different pH levels and insolations over the seasons.

SMILES: COc1c(C)c2c(c(O)c1CC=C(C)CCC(=O)O)C(=O)OC2 [MPA, 6‐(1,3‐dihydro‐4‐hydroxy‐6‐methoxy‐7‐methyl‐3‐oxo‐5‐isobenzofuranyl)‐4‐methyl‐4‐hexenoic acid]
- hydrolytic degradation constant [1]: 0.0002 min^–1
- EC10 for survival of the parental fish (Danio rerio; 23 d, GMMC): 0.0189 µg/mL
- NOEC of all endpoints (survival of parental fish, fecundity, fertilization success), F0 (Danio rerio; 23 d, GMMC): 73 µg/L
- NOEC of all endpoints (survival of parental fish, fecundity, fertilization success), F0 (Danio rerio; 23 d, highest tested nominal concentration): 100 µg MPA/L
- EC10 for fecundity and fertilization success (Danio rerio; Danio rerio, in vivo, 23 days): > 73 µg MPA/L
- provisional PNECABR (rounded down, selected) (bacteria; lower of the 2 values): 64 µg MPA/L
- first provisional PNECABR (bacteria; lowest MIC divided by 100, following Kümmerer and Henninger (2003)): 312.5 µg/L
- second provisional PNECABR (bacteria; procedure of Bengtsson‐Palme and Larsson (2016), before rounding): 76 µg/L
- biodegradation rate constant k biodeg ([2]; fifth cycle): 0.006 min^–1
- biodegradation rate constant k biodeg ([2]; first cycle): 0.0017 min^–1
- k photo ([3]; pH 5, summer): 0.0059 min^–1
- k photo ([3]; pH 5, winter): 0.0017 min^–1
- k photo ([3]; pH 7, summer): 0.018 min^–1
- k photo ([3]; pH 7, winter): 0.0049 min^–1
- k photo ([3]; pH 9, summer): 0.031 min^–1
- k photo ([3]; pH 9, winter): 0.0087 min^–1
